# Results from patent publication US4217274A, “Methoxyethoxymethyl esters of penicillins” (Bristol-Myers Company, priority 1978, dated 1980).
# Where two headings read alike, the source gives them in different places.
# Legend:
# Pr. morganii = test: MIC, antibiotic dilution technique (agar); format: cell-based; conditions: Morganella morganii, read-out: MIC
# Description: (§1) Bacteria. The organisms, preponderantly of recent clinical origin, were obtained from numerous sources of broad geographical distribution. Obligate anaerobes were maintained in Egg Meat Medium (Difco); Mycobacterium was stored on Lowenstein Medium (Jensen Modification; Difco). The techniques of storing all other organisms have been described previously [Leitner et al., BL-S640, A Cephalosporin with a Broad Spectrum of Antibacterial Activity: Properties in vitro, Antimicrob. Agents Chemother., 7, 298-305 (1975)].
# (§2) Antibiotic spectrum. The growth-inhibitory activity of the compounds was determined by the antibiotic dilution technique. Procedures were as follows:
# (§3) Aerobic organisms (excluding Mycobacterium). Except for Haemophilus and Neisseria, the assay was performed in Mueller-Hinton Medium (Difco). For fastidious organisms, i.e., Streptococcus, Listeria, Pasteurella, Bordetella and Vibrio, the medium was supplemented with 4% defibrinated sheep blood. The antibiotic susceptibility of Haemophilus and Neisseria was determined in GC Medium Base (BBL) supplemented with 1% Hemoglobin (BBL) and 1% Isovitalex (BBL).
# (§4) Overnight broth cultures of an exponentially growing culture (Neisseria) served as the source of inoculum. A volume of approximately 0.003 ml. of the undiluted or diluted culture was applied to the surface of the antibiotic-containing agar plates with the inoculator of Steers et al., An Inocula Replicating Apparatus for Routine Testing of Bacterial Susceptibility to Antibiotics, Antibiot. Chemother., 9, 307-311, (1959). Cultures of Neisseria, Streptococcus pneumoniae, S. viridans and S. pyogenes were used without dilution; those of all other organisms were diluted 100-fold. The inoculum contained about 10^3 viable cells for Neisseria, 10^5 for S. pneumoniae and S. pyogenes, 10^6 for S. viridans and 10^4 for all other species.
# E. Coli [1] = test: MIC, antibiotic dilution technique (agar); format: cell-based; conditions: Escherichia coli
# Description: as §1, §2, §3, §4
# Pr. vulgaris = test: MIC, antibiotic dilution technique (agar); format: cell-based; conditions: Proteus vulgaris
# Description: as §1, §2, §3, §4
# Ser. marcescens = test: MIC, antibiotic dilution technique (agar); format: cell-based; conditions: Serratia marcescens
# Description: as §1, §2, §3, §4
# Ps. aeruginosa = test: MIC, antibiotic dilution technique (agar); format: cell-based; conditions: Pseudomonas aeruginosa, read-out: MIC
# Description: as §1, §2, §3, §4
# S. aureus = test: MIC, antibiotic dilution technique (agar); format: cell-based; conditions: Staphylococcus aureus
# Description: as §1, §2, §3, §4
# Str. faecalis = test: MIC, antibiotic dilution technique (agar); format: cell-based; conditions: Enterococcus faecalis
# Description: as §1, §2, §3, §4
# Pr. mirabilis = test: MIC, antibiotic dilution technique (agar); format: cell-based; conditions: Proteus mirabilis
# Description: as §1, §2, §3, §4
# Str. pneumoniae = test: MIC, antibiotic dilution technique (agar); format: cell-based; conditions: Streptococcus pneumoniae
# Description: as §1, §2, §3, §4
# S. aureus Pen-Res. = test: MIC, antibiotic dilution technique (agar); format: cell-based; conditions: Staphylococcus aureus, read-out: MIC
# Description: as §1, §2, §3, §4
# Pr. rettgeri = test: MIC, antibiotic dilution technique (agar); format: cell-based; conditions: Providencia rettgeri
# Description: as §1, §2, §3, §4
# Ent. cloacae = test: MIC, antibiotic dilution technique (agar); format: cell-based; conditions: Enterobacter cloacae, read-out: MIC
# Description: as §1, §2, §3, §4
# S. aureus Meth-Res. = test: MIC, antibiotic dilution technique (agar); format: cell-based; conditions: Staphylococcus aureus
# Description: as §1, §2, §3, §4
# K. pneumoniae [2] = test: MIC, antibiotic dilution technique (agar); format: cell-based; conditions: Klebsiella pneumoniae, read-out: MIC
# Description: as §1, §2, §3, §4
# Str. pyogenes = test: MIC, antibiotic dilution technique (agar); format: cell-based, S. pyogenes; conditions: Streptococcus pyogenes
# Description: as §1, §2, §3, §4
# E. Coli [3] = test: MIC, antibiotic dilution technique (agar), Table 4; format: cell-based; conditions: Escherichia coli
# Description: as §1, §2, §3, §4
# S. viridans = test: MIC, antibiotic dilution technique (agar), Table 4; format: cell-based; conditions: Streptococcus viridans
# Description: as §1, §2, §3, §4
# S. faecalis = test: MIC, antibiotic dilution technique (agar), Table 4; format: cell-based; conditions: Enterococcus faecalis; Table 4, 6 strains, geometric mean where applicable
# Description: as §1, §2, §3, §4
# S. marcescens = test: MIC, antibiotic dilution technique (agar), Table 4; format: cell-based
# Description: as §1, §2, §3, §4
# S. pyogenes = test: MIC, antibiotic dilution technique (agar), Table 4; format: cell-based; conditions: Streptococcus pyogenes; Table 4, 6 strains, geometric mean where applicable
# Description: as §1, §2, §3, §4
# P. rettgeri = test: MIC, antibiotic dilution technique (agar), Table 4; format: cell-based; conditions: Providencia rettgeri
# Description: as §1, §2, §3, §4
# S. pneumoniae = test: MIC, antibiotic dilution technique (agar), Table 4; format: cell-based; conditions: Streptococcus pneumoniae; Table 4, 7 strains, geometric mean where applicable
# Description: as §1, §2, §3, §4
# P. mirabilis = test: MIC, antibiotic dilution technique (agar), Table 4; format: cell-based; conditions: Proteus mirabilis, Table 4, P. mirabilis, geometric mean where applicable, read-out: MIC
# Description: as §1, §2, §3, §4
# [4] = system: S. aureus (lacking penase); test: MIC, antibiotic dilution technique (agar), Table 4; format: cell-based; conditions: Staphylococcus aureus; Table 4, 6 strains, geometric mean where applicable
# Description: as §1, §2, §3, §4
# K. pneumoniae [5] = test: MIC, antibiotic dilution technique (agar), Table 4; format: cell-based; conditions: Klebsiella pneumoniae, Table 4, K. pneumoniae, read-out: MIC
# Description: as §1, §2, §3, §4
# [6] = system: Streptococcus sp. (β-hemolytic); test: MIC, antibiotic dilution technique (agar), Table 4; format: cell-based; conditions: Table 4, 6 strains, geometric mean where applicable
# Description: as §1, §2, §3, §4
# p. vulgaris = test: MIC, antibiotic dilution technique (agar), Table 4; format: cell-based; conditions: Proteus vulgaris; Table 4, 2 strains, geometric mean where applicable
# Description: as §1, §2, §3, §4
# E. cloacae = test: MIC, antibiotic dilution technique (agar), Table 4; format: cell-based; conditions: Enterobacter cloacae; Table 4, 2 strains, geometric mean where applicable
# Description: as §1, §2, §3, §4
structure (smiles),measurement,setting,value
"COCCOCOC(=O)[C@@H]1N2C(=O)[C@@H](N3C(=O)[C@@H](c4ccccc4)NC3(C)C)[C@H]2SC1(C)C [RN-1492, Methoxyethoxymethyl Ester of Hetacillin]",MIC,"Pr. morganii; Table 1, Pr. morganni",32 µg/mL
same,MIC,"E. Coli [1]; Table 1, E. Coli, first line",2 µg/mL
same,MIC,"E. Coli [1]; Table 1, E. Coli, second line",63 µg/mL
same,MIC,"Pr. vulgaris; Table 1, Pr. vulgaris",0.25 µg/mL
same,MIC,"Ser. marcescens; Table 1, Ser. marcescens",32 µg/mL
same,MIC,"Ps. aeruginosa; Table 1, Ps. aeruginosa, first line",63 µg/mL
same,MIC,"Ps. aeruginosa; Table 1, Ps. aeruginosa, second line",125 µg/mL
same,MIC,"S. aureus; Table 1, S. aureus",0.06 µg/mL
same,MIC,"S. aureus; Table 1, S. aureus + 50% serum",0.13 µg/mL
same,MIC,"Str. faecalis; Table 1, Str. faecalis",0.5 µg/mL
same,MIC,"Pr. mirabilis; Table 1, Pr. mirabilis",0.25 µg/mL
same,MIC,"Str. pneumoniae; Table 1, Str. pneumoniae",0.004 µg/mL
same,MIC,"S. aureus Pen-Res.; Table 1, S. aureus Pen-Res.",> 125 µg/mL
same,MIC,"Pr. rettgeri; Table 1, Pr. rettgeri",16 µg/mL
same,MIC,"Ent. cloacae; Table 1, Ent. cloacae, first line",63 µg/mL
same,MIC,"Ent. cloacae; Table 1, Ent. cloacae, second line",63 µg/mL
same,MIC,"S. aureus Meth-Res.; Table 1, S. aureus Meth-Res.",63 µg/mL
same,MIC,"K. pneumoniae [2]; Table 1, K. pneumoniae, first line",63 µg/mL
same,MIC,"K. pneumoniae [2]; Table 1, K. pneumoniae, second line",32 µg/mL
same,MIC,"Str. pyogenes; Table 1, Str. pyogenes",0.008 µg/mL
same,MIC,E. Coli [3]; 1 strain (first line),2 µg/mL
same,MIC,E. Coli [3]; 1 strain (fourth line),> 125 µg/mL
same,MIC,E. Coli [3]; 1 strain (third line),63 µg/mL
same,MIC,"E. Coli [3]; 3 strains (second line), geometric mean where applicable",5 µg/mL
same,MIC,"S. viridans; Table 4, S. viridans, 1 strain (second line)",0.25 µg/mL
same,MIC,"S. viridans; Table 4, S. viridans, 3 strains, geometric mean where applicable",0.05 µg/mL
same,MIC,"S. viridans; Table 4, s. viridans, 1 strain (third line)",0.5 µg/mL
same,MIC,S. faecalis,2 µg/mL
same,MIC,S. marcescens; 1 strain (second line),> 125 µg/mL
same,MIC,"S. marcescens; Serratia marcescens, 1 strain (first line), read-out: MIC",> 125 µg/mL
same,MIC,S. pyogenes,0.027 µg/mL
same,MIC,"P. rettgeri; Table 4, P. retgeri, 2 strains (third line), geometric mean where applicable",63 µg/mL
same,MIC,"P. rettgeri; Table 4, P. rettgeri, 1 strain (first line)",0.25 µg/mL
same,MIC,"P. rettgeri; Table 4, P. rettgeri, 1 strain (second line)",16 µg/mL
same,MIC,S. pneumoniae,0.032 µg/mL
same,MIC,P. mirabilis; 2 strains,> 125 µg/mL
same,MIC,P. mirabilis; 4 strains,4 µg/mL
same,MIC,[4],0.18 µg/mL
same,MIC,K. pneumoniae [5]; 1 strain (first line),63 µg/mL
same,MIC,K. pneumoniae [5]; 1 strain (second line),> 125 µg/mL
same,MIC,[6],0.13 µg/mL
same,MIC,p. vulgaris,0.5 µg/mL
same,MIC,E. cloacae,> 125 µg/mL
"COCCOCOC(=O)[C@@H]1N2C(=O)[C@@H](N3C(=O)[C@@H](c4ccc(O)cc4)NC3(C)C)[C@H]2SC1(C)C [RN-1493, Methoxyethoxymethyl Ester of Heta-Amoxicillin]",MIC,"Pr. morganii; Table 2, Pr. morganii",16 µg/mL
same,MIC,"E. Coli [1]; Table 2, E. coli, first line",2 µg/mL
same,MIC,"E. Coli [1]; Table 2, E. coli, second line",63 µg/mL
same,MIC,"Pr. vulgaris; Table 2, Pr. vulgaris",0.5 µg/mL
same,MIC,"Ser. marcescens; Table 2, Ser. marcescens",32 µg/mL
same,MIC,"Ps. aeruginosa; Table 2, Ps. aeruginosa, first line",63 µg/mL
same,MIC,"Ps. aeruginosa; Table 2, Ps. aeruginosa, second line",63 µg/mL
same,MIC,"S. aureus; Table 2, S. aureus",0.06 µg/mL
same,MIC,"S. aureus; Table 2, S. aureus + 50% serum",0.25 µg/mL
same,MIC,"Str. faecalis; Table 2, Str. faecalis",0.5 µg/mL
same,MIC,"Pr. mirabilis; Table 2, Pr. mirabilis",0.5 µg/mL
same,MIC,"Str. pneumoniae; Table 2, Str. pneumoniae",0.004 µg/mL
same,MIC,"S. aureus Pen-Res.; Table 2, S. aureus Pen-Res.",125 µg/mL
same,MIC,"Pr. rettgeri; Table 2, Pr. rettgeri",32 µg/mL
same,MIC,"Ent. cloacae; Table 2, Ent. cloacae, first line",63 µg/mL
same,MIC,"Ent. cloacae; Table 2, Ent. cloacae, second line",63 µg/mL
same,MIC,"S. aureus Meth-Res.; Table 2, S. aureus Meth-Res.",63 µg/mL
same,MIC,"K. pneumoniae [2]; Table 2, K. pneumoniae, first line",63 µg/mL
same,MIC,"K. pneumoniae [2]; Table 2, K. pneumoniae, second line",63 µg/mL
same,MIC,"Str. pyogenes; Table 2, Str. pyogenes",0.008 µg/mL
